The values that follow come from patent publication US5916872A, “Cyclic peptides having broad spectrum antimicrobial activity” (IntraBiotics Pharmaceuticals, Inc., priority 1996, dated 1999).

Assay type in all cases: cell-based
Assay [1] deals with MRSA (methicillin resistant Staphylococcus aureus). The assay can be described thus: Kinetic bactericidal assay. The following applies: 2 μg/mL peptide, from an initial value of 3.3 × 10^5 CFUs. The text has this:
(§1) Microorganisms: Escherichia coli ML-35p and vancomycin-resistant Enterococcus faecium (VRE) were obtained from Dr. Robert Lehrer (UCLA, see also, Lehrer et al., 1988, J. Immunol. Methods 108:153) and Dr. Gary Schoolnik (Stanford), respectively. Pseudomonas aeruginosa (ATCC 9027), Candida albicans (ATCC 1023), and methicillin resistant Staphylococcus aureus (ATCC 33591) were obtained from the American Type Culture Collection, Rockville, Md.
8.4 Kinetic Bactericidal Assay
The following assay is used to determine the rate at which a cyclic peptide kills a target microorganism, as well as to determine if a cyclic peptide is bactericidal or bacteriostatic.
1. Dispense 200 μL of log-phase cells in LTM (4×10^5 CFUs/mL) into each well of a 96-well microtiter plate solution.
2. At time T=0 minutes, add 22 μL of 1280 μg/mL peptide to well A1 and mix by triturating 3 times.
3. Wait 30 seconds and add 22 μL of a second concentration of peptide the to the next well (A2) and mix by triturating 3 times.
4. Repeat the process, staggering each peptide addition by 30 seconds, until all concentrations of peptide have been added. Typically, 4-fold serial dilutions of stock peptide (i.e., 1280, 320, 80, 20 and 5 μg/mL peptide diluted 1:10 into each well) produces good comparative kill curves. Add 22 μL of 0.01% acetic acid to one well as a control.
5. At time T=15 minutes, mix well A1 by triturating 3 times and transfer 20 μL to an empty sterile petri dish (100 mm×15 mm).
6. Quickly add 20 mL of tempered (50° C.) TSA and gently swirl plate to mix.
7. Repeat steps 5-6 until all peptide concentrations have been plated.
8. For the control well, dilute the sample 1:100 with LTM and plate 50 μL of the dilution to obtain an accurate determinations of CFUs.
9. After the agar has solidified, invert the plates and incubate at 37° C. (bacteria) 30° C. (yeast) for 18-24 hours.
10. Repeat steps 5-9 for all peptide concentrations and control samples at times T=30, 60, 120, and 240 minutes.
11. Count the number of CFUs per plate and estimate the reduction in CFUs for each peptide concentration. In order to assess an effect using this assay, the peptide must reduce the CFUs by at least one log (i.e., at least 800 CFUs per plate). Although such numbers are higher than recommended for accuracy (30-300 CFUs/plate), log-order changes in recoverable CFUs indicate significant bacteriocidal efficacy.
12. To obtain comparative kill curves, plot the log of fractional survival versus peptide concentration.

The subject of assay [2] is Pseudomonas aeruginosa. In words: Modified NCCLS minimum inhibitory concentration (MIC) assay. The following applies: Table 4; Psa is Pseudomonas aeruginosa.
Text: as §1
(§2) 8.3 Modified NCCLS Minimum Inhibitory Concentration (MIC) Assay
(§3) The National Committee for Clinical Standards (NCCLS) requires that test compounds be prepared as stock solutions in Meuller-Hinton Broth ("MHB") at 512 μg/mL. The stock solutions are serially diluted (two-fold) in medium and each serial dilution added 1:1 to medium containing 1×10^6 CFU/mL bacteria (National Committee on Clinical Laboratory Standards, December 1994, "Performance Standards for Antimicrobial Susceptibility Testing," NCCLS Document M100-S5 Vol. 14, No. 16; Methods for Dilution Antimicrobial Susceptibility Test for Bacteria that Grow Aerobically, 3d Ed., Approved Standard M7-A3, National Committee for Clinical Standards, Villanova, Pa.).
(§4) Thus, following the NCCLS protocol would result in serial two-fold dilutions containing less peptide than calculated, yielding erroneously high MIC values.
(§5) To overcome this problem, the following modified NCCLS assay is the preferred method for determining MICs of the cyclic peptides of the invention.
(§6) Preparation of MIC assay plates:
(§7) 1. Prepare a fresh overnight culture of test organism in Meuller-Hinton broth (MHB; Becton-Dickinson, Cockysville, Md., BB2 #11443).
(§8) 2. Dilute the culture to approximately 4×10^5 CFUs/mL with fresh MHB and dispense 100 μL aliquots into each well of a sterile 96-well microtiter plate.
(§9) 3. From the peptide stock solution, prepare serial two-fold dilutions (from 1280 μg/mL to 0.625 μg/mL) using acetic acid (0.01%) as a diluent, or, for peptide concentrations lower than 50 μg/mL, sodium acetate (10 mM, pH 5) containing Human Serum Albumin (HSA; 0.1% w/v) as a diluent.
(§10) 4. Dispense triplicate aliquots (11 μL) of each serial dilution into the wells of the microtiter plate.
(§11) 5. Incubate the plate for 16-18 hours, without aeration, at 37° C. (bacteria) or 30° C. (yeast).
(§12) 6. Examine the plates and evaluate each well for turbidity (cell growth). Often, MRSA will settle out and form a pellet at the bottom of the well. MRSA can be evaluated by placing the microtiter plate on a stand and examining the bottom of the well using a tilted mirror.
(§13) 7. The minimum inhibitory concentration (MIC) is defined as the lowest peptide concentration that inhibits all visible growth. If the MIC values for each of the triplicate samples differ, the MIC is obtained by averaging the results of the three samples. […]

The test system of assay [3] is MRSA (methicillin resistant Staphylococcus aureus). The assay is described as above. The following applies: Table 4.
Text: as §1, §2, §3, §4, §5, §6, §7, §8, §9, §10, §11, §12, §13

≈ marks a conversion by molar mass, not a printed value. Positions of bridges follow the written chain, without caps; N, C: chain ends. Residues, ends and D or L forms follow the SMILES beside them.

Turning to WLCYCRRRFCVCVGR, in assay [1], the “MRSA Kill Kinetics 15 min” value was < 0.46 log reduction and the “MRSA Kill Kinetics 120 min” value is < 0.46 log reduction. The “MIC Values Psa” value in assay [2] amounted to 32 µg/mL. Further, in assay [3], the “MIC Values MRSA” value is 32 µg/mL.

Turning to `CC(C)C[C@@H]1NC(=O)[C@H](Cc2c[nH]c3ccccc23)NC(=O)[C@H](C(C)C)NC(=O)[C@@H]2CSSC[C@H](NC1=O)C(=O)N[C@@H](Cc1ccc(O)cc1)C(=O)N[C@H]1CSSC[C@H](NC(=O)[C@H](Cc3ccccc3)NC(=O)[C@H](CCCNC(=N)N)NC(=O)[C@H](CCCNC(=N)N)NC(=O)[C@H](CCCNC(=N)N)NC1=O)C(=O)N[C@@H](C(C)C)C(=O)N2` [cyclo(CYCRRRFCVCVWL)] (cyclo(CRRRFCVCVWLCY); disulfide 1-6, 8-12), in assay [1], the “MRSA Kill Kinetics 15 min” value is 2.65 log reduction and the “MRSA Kill Kinetics 120 min” value was determined as 2.18 log reduction. Besides, the “MIC Values Psa” value in assay [2] is > 32 µg/mL. Also, in assay [3], the “MIC Values MRSA” value worked out at 4 µg/mL (≈ 2.37 µM).

As for `CC(C)[C@@H]1NC(=O)[C@@H]2CSSC[C@H](NC(=O)[C@H](Cc3ccc(O)cc3)NC(=O)[C@H](Cc3c[nH]c4ccccc34)NC1=O)C(=O)N[C@@H](Cc1ccc(O)cc1)C(=O)N[C@H]1CSSC[C@H](NC(=O)[C@H](Cc3ccccc3)NC(=O)[C@H](CCCNC(=N)N)NC(=O)[C@H](CCCNC(=N)N)NC(=O)[C@H](CCCNC(=N)N)NC1=O)C(=O)N[C@@H](C(C)C)C(=O)N2` [cyco(CYCRRRFCVCVWY), cyclo(CYCRRRFCVCVWY)] (cyclo(CRRRFCVCVWYCY); disulfide 1-6, 8-12), the “MIC Values Psa” value in assay [2] is 32 µg/mL (≈ 18.4 µM). The “MIC Values MRSA” value in assay [3] turned out to be 8 µg/mL (≈ 4.61 µM).

Consider WLCYCRRRFCVCV, for which, in assay [2], the “MIC Values Psa” value came out at 13 µg/mL. Besides, in assay [3], the “MIC Values MRSA” value worked out at 32 µg/mL.

Consider WYCYCRRRFCVCV, for which the “MIC Values Psa” value in assay [2] was 32 µg/mL. The “MIC Values MRSA” value in assay [3] turned out to be 43 µg/mL.

With `CC(C)C[C@@H]1NC(=O)[C@H](CCCNC(=N)N)NC(=O)[C@H](C(C)C)NC(=O)[C@@H]2CSSC[C@H](NC1=O)C(=O)N[C@@H](Cc1ccc(O)cc1)C(=O)N[C@H]1CSSC[C@H](NC(=O)[C@H](Cc3ccccc3)NC(=O)[C@H](CCCNC(=N)N)NC(=O)[C@H](CCCNC(=N)N)NC(=O)[C@H](CCCNC(=N)N)NC1=O)C(=O)N[C@@H](C(C)C)C(=O)N2` [cyclo(CYCRRRFCVCVRL)] (cyclo(CRRRFCVCVRLCY); disulfide 1-6, 8-12), in assay [2], the “MIC Values Psa” value came to 2.67 µg/mL (≈ 1.61 µM). In addition, in assay [3], the “MIC Values MRSA” value came to 16 µg/mL (≈ 9.67 µM).

As for “WLCYCRRRFCVCVGR [WLCYCRRRFCVCVGR.dagger.]”, in assay [1], the “MRSA Kill Kinetics 15 min” value is 1.79 log reduction and the “MRSA Kill Kinetics 120 min” value is 2.26 log reduction.

As for RLCYCRRRFCVCV, the “MIC Values Psa” value in assay [2] worked out at 2 µg/mL. In assay [3], the “MIC Values MRSA” value stood at 10.7 µg/mL.

With WLCYCRRRFCVCV [WLCYCRRRFCVCV.dagger.], in assay [1], the “MRSA Kill Kinetics 15 min” value is given as 2.12 log reduction and the “MRSA Kill Kinetics 120 min” value came to 2.89 log reduction. Further, the “MIC Values Psa” value in assay [2] was > 32 µg/mL. Moreover, the “MIC Values MRSA” value in assay [3] amounted to 3.33 µg/mL.

In the case of RGGRLCYCRRRFCVCVGR, the “MIC Values Psa” value in assay [2] is 0.5 µg/mL. Besides, in assay [3], the “MIC Values MRSA” value came to 4 µg/mL.

On to RLCYCRRRFCVCVV [RLCYCRRRFCVCVV.dagger.], for which, in assay [2], the “MIC Values Psa” value is 4 µg/mL. In addition, the “MIC Values MRSA” value in assay [3] was 2 µg/mL.

Take `CC(C)C[C@@H]1NC(=O)[C@H](CCCNC(=N)N)NC(=O)CNC(=O)CNC(=O)[C@H](CCCNC(=N)N)NC(=O)[C@H](CCCNC(=N)N)NC(=O)CNC(=O)[C@H](C(C)C)NC(=O)[C@@H]2CSSC[C@H](NC1=O)C(=O)N[C@@H](Cc1ccc(O)cc1)C(=O)N[C@H]1CSSC[C@H](NC(=O)[C@H](Cc3ccccc3)NC(=O)[C@H](CCCNC(=N)N)NC(=O)[C@H](CCCNC(=N)N)NC(=O)[C@H](CCCNC(=N)N)NC1=O)C(=O)N[C@@H](C(C)C)C(=O)N2` [cyclo(CYCRRRFCVCVGRRGGRL)] (cyclo(GGRLCYCRRRFCVCVGRR); disulfide 5-14, 7-12): in assay [1], the “MRSA Kill Kinetics 15 min” value is listed as 1.2 log reduction and the “MRSA Kill Kinetics 120 min” value is 1.17 log reduction. Also, the “MIC Values Psa” value in assay [2] came to 8 µg/mL (≈ 3.74 µM). Besides, the “MIC Values MRSA” value in assay [3] is 5.33 µg/mL (≈ 2.49 µM).
